Source: patent US20040116346A1, “Affinity small molecules for the EPO receptor” (priority 2002, published 2004)

Tested on: Mouse or human bone marrow cells
Assay: Formation of erythroid colonies (CFU-e, BFU-e) from bone marrow in methylcellulose
Type: cell-based
Conditions: mouse and human bone marrow
Procedure: Mouse or human bone marrow cells were stimulated in methylcellulose for 7 days (mouse) or 14 days (human) with non-peptide EPO-R modulators. Formation of erythroid colonies was observed. (See FIGS. 6 to 8)
(1) Dilute human bone marrow 1:1 with sterile PBS. (2) Slowly layer bone marrow into 50 ml tubes containing 20 ml of LSM Lymphocyte separation medium (ICN/Cappel—cat #50494). 50 ml bone marrow will yield 2 tubes. (3) Spin tubes at 2000 rpm for 30 minutes with brake off. (4) Slowly take out the middle layer using a 10 ml pipette and transfer into a new 50 ml tube. (5) Add PBS +0.5% BSA +5 mM EDTA to tube for washing. (6) Spin tube for 5 minutes at speed 4 with brake on. (7) Repeat wash step 2 more times. (8) After 3rd wash, resuspend pellet in SF Iscoves' MDM medium. (9) Count by diluting cells in 3% acetic acid. (10) Dilute cells to desired concentration (5×10^5 cells/ml) and seed onto methylcellulose.
(1) Tubes containing 3.0 ml of methylcellulose medium (Stemcell Technology, cat #H4230) supplemented with 50 ng/ml hSCF are prepared. (Alternatively the methylcellulose could be supplemented with 50 ng/ml hSCF, 20 ng/ml of hIL-3 and hIL-6). (2) Compounds or EPO of desired concentrations are added to the tubes. […] Colonies are scored on day twelve.
Bone marrow cells were isolated from mouse femurs. […] The colonies were scored on day seven. […]

## Cc1ccc(Cl)cc1Nc1nc2nc(C)c(NCC3CC3)cn2n1 [Compound E5]
  CFU-e formation compared with EPO: stimulate CFU-e formation to the same extent as EPO
